# Like-named read-outs stand apart in the source and are kept apart here.
# Legend:
# [1] = tested on: NIDDM male mice (C57BLKS/J-m+/+Lepr db); experiment: Therapeutic study: serum glucose levels in diabetic animals; format: in vivo; settings: i.p. twice daily
# Procedure: In vivo evaluation of the role of dual inhibitor of both 5-LO and 12/15-LO enzymes in the reduction of serum glucose levels and insulin was performed in C57BLKs/J-m+/+Lepr db mice, a non-insulin dependent diabetic mellitus (NIDDM) model, as described in Examples. […] […].
# Non-insulin dependent diabetic mellitus (NIDDM) male mice (C57BLKS/J-m+/+Lepr db), weighing 45±5 g (10 weeks of age) and provided by Institute for Animal Reproduction (IAR, Japan), were used.
# Groups of 10 non-insulin dependent diabetic mellitus (NIDDM) male mice (C57BLKS/J-m+/+Lepr db), weighing 45±5 g and 10-weeks-old, were used. The animals were housed in Individually Ventilated Cages Racks (IVC Racks) throughout the experiment; all animals were allowed free access to sterilized Lab chow and sterilized distilled water. The test compounds, as well as vehicle (0.5% DMSO/2% Tween 80/0.9% NaCl), were each administered intraperitoneally twice daily (1st at 9:00 A.M. and 2nd at 16:00 P.M.) for a total of 14 consecutive days. Using blood samples collected from the orbital sinus, pre-treatment serum glucose and insulin levels were determined 24 hours prior to the first dosing on day 0. Post-treatment glucose and insulin levels were detected 4 hours after dosing on days 11 and 14. Also, serum glucose and insulin levels were obtained before and 15, 30 and 90 minutes after glucose loading (orally glucose tolerance test (OGTT) 2 g/kg), 4 hours following the dosing on day 11. Serum glucose and Insulin (on days 0, 11 and 14) levels were determined by enzymatic (Mutaratase-GOD) and ELISA (mouse insulin assay kit) methods, respectively. The percentage of post-treatment relative to pre-treatment group values obtained on days 11 and 14 were analyzed using One Way ANOVA followed by Dunnett's test for comparison between vehicle and treated groups. […]
# For effect on OGTT, AUC (area under the curve) for the serum glucose at times 0, 15, 30, and 90 minutes after OGTT was plotted for each test compound and its respective vehicle control. […] Body weight and food intake were measured daily through the course of the study.
# [2] = biological target: T1, 5-lipoxygenase (Homo sapiens, UniProt P09917); settings: background; cited from earlier work
# T1 sequence (P09917 1-674): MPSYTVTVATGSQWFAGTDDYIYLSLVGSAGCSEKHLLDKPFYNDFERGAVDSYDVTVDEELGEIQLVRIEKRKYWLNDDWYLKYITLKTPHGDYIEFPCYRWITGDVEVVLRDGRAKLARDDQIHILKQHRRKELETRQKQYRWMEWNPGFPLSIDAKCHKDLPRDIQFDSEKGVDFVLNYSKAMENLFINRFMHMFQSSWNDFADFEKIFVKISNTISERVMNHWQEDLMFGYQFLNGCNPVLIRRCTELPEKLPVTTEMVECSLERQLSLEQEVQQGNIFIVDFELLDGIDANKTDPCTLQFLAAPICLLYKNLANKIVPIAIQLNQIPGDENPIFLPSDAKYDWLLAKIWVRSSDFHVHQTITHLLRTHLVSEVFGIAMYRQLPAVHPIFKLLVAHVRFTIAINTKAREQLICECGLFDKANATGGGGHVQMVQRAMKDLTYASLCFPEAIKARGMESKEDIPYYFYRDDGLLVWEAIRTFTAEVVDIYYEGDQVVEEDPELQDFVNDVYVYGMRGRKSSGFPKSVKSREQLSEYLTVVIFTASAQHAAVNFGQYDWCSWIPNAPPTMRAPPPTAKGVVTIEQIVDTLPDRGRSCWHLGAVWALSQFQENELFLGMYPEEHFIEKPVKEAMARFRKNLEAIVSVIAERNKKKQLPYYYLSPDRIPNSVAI
# [3] = biological target: T2, porcine leukocyte 12/15-lipoxygenase (Sus scrofa, UniProt P16469); experiment: 12/15-Lipoxygenase Enzyme Assay (colorimetric, ferric oxidation of xylenol orange); format: biochemical
# T2 construct: purchased Cayman 60300
# T2 sequence (P16469 1-663): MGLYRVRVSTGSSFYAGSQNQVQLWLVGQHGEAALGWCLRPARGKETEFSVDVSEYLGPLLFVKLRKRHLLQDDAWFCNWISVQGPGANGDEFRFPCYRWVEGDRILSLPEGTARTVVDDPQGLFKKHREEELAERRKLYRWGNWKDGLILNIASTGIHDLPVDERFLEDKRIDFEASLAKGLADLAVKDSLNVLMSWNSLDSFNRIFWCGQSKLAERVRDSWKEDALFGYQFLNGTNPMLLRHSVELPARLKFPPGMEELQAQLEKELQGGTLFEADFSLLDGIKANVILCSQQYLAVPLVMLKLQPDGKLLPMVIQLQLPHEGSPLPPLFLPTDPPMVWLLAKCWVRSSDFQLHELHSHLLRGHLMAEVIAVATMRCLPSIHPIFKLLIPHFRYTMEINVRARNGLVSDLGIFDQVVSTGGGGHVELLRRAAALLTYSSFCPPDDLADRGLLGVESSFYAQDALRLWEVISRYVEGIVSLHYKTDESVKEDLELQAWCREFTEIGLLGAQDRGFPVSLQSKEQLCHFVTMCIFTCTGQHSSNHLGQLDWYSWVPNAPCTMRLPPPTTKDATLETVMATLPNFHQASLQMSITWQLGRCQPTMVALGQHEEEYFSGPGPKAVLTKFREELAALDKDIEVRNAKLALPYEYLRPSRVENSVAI
# Procedure: This procedure was used for measuring the enzymatic activity of porcine leukocyte 12/15-lipoxygenase using a colorimetric method based on the ferric oxidation of xylenol orange.
# (§1) The test compound and/or vehicle were added to 1.3 μL 12/15-lipoxygenase in 50 mM Tris-HCl buffer, pH 7.4. The reaction was initiated by addition of 70 μM arachidonic acid in Tris-HCl buffer, pH 7.4, and terminated after a 10 minute incubation at room temperature by addition of FOX reagent (25 mM sulphuric acid, 100 μM xylenol orange, 100 μM iron (II) sulphate, methanol:water 9:1). The yellow color of acidified xylenol orange was converted to a blue color by the lipid hydroperoxide-mediated oxidation of Fe^2+ ions and the interaction of the resulting Fe^3+ ions with the dye. The complex was allowed to form during a 1 hour incubation at room temperature with shaking. Absorbance of the Fe^3+ complex was then measured at 620 nm using a spectrophotometer.
# Negative controls contained enzyme during the incubation step but substrate was not added until after the FOX reagent.
# [4] = biological target: T1, 5-lipoxygenase; experiment: 5-Lipoxygenase Enzyme Assay (colorimetric, ferric oxidation of xylenol orange); format: biochemical; set-up: purchased Cayman 60402
# Procedure: This procedure was used for measuring the enzymatic activity of human recombinant 5-lipoxygenase using a colorimetric method based on the ferric oxidation of xylenol orange.
# as §1, with “was” for “were”, “0.5” for “1.3”, “5-lipoxygenase” for “12/15-lipoxygenase”, “spectrophotometer. Negative controls contained enzyme during the incubation step but substrate was not added until after the FOX reagent.” for “spectrophotometer.”
# [5] = read-out: classification as dual inhibitor: 12/15-LO enzyme assay IC50
# [6] = read-out: classification as dual inhibitor: 5-LO enzyme assay IC50
Structure (SMILES),5-lipoxygenase inhibition / specificity as reported in the literature [2],"IC50 [3, 5]","IC50 [4, 6]",further results
"CC(c1cc2ccccc2s1)N(O)C(N)=O (centres unmarked) [C, Zileuton, reference compound]",specific,,,"reduction in serum glucose relative to the respective vehicle control group (FIG. 2) ([1]; 30 mg/kg, p<0.01): reduction in serum glucose"
"CC(Cc1ccc(O)c(O)c1)C(C)Cc1ccc(O)c(O)c1 (centres unmarked) [Compound A, Nordihydroguaiaretic acid (NDGA)]",inhibitor,,,
"Cc1c(O)c(C)c2c(c1F)OC(C)(C)CC2 [Compound D, 8-fluoro-2,2,5,7-tetramethylchroman-6-ol]",,< 5 µM,< 5 µM,reduction in baseline elevated blood glucose level in comparison to the vehicle group [1]: 13%; IC50 ([3]; read-out: in vitro IC50 value in a 12/15-LO enzyme assay): < 5 µM; IC50 ([4]; read-out: in vitro IC50 value in a 5-LO enzyme assay): < 5 µM
"Cc1c(O)cc2c(c1C)N(c1ccc(O)cc1)C(C)CC2 (centres unmarked) [Compound E, 1-(4-hydroxyphenyl)-2,7,8-trimethyl-1,2,3,4-tetrahydroquinolin-6-ol]",,< 5 µM,< 5 µM,"lowering of serum glucose levels compared to respective control (FIG. 2) ([1]; 15 mg/kg, p<0.05): significant lowering"
